Laboratory results taken from patent US20160185808A1, “PLATINUM DERIVATIVES FOR HYDROPHOBIC FORMULATIONS” (priority 2013, published 2016).
Each block holds one molecule with its values, some of them ahead of it.

Legend:
[1] = Storage stability of nanoemulsion formulations; type: physicochemical; conditions: concentration up to 5 mg/ml, at both 4° C. and room temperature
Method: The poor […] of these compounds is due to the presence of a di-fatty acid structure, which causes them to be too hydrophobic. […] Nanoemulsion formulations prepared with a concentration of up to 5 mg/ml of cisplatin mono-myristate, cisplatin mono-palmitate, and cisplatin mono-stearate were stable at both 4° C. and room temperature for approximately 3 months.

[2] = tested on: SKOV3 human ovary cancer cells; experiment: Therapeutic efficacy in vivo against SKOV3 tumors in Nu/Nu mice
Method: The therapeutic efficacy of the Pt (II) complex against cancer was examined in vivo according to the following procedure, the results of which can be seen both in Table III and in graphical form in FIG. 4. To develop orthotropic tumors, 30 Nu/Nu female mice, each weighing approximately 20 g (Charles River Laboratories, Cambridge, Mass.), were injected intraperitoneally (ip) with 1×10^6 SKOV3 human ovary cancer cells (American Type Culture Collection (ATCC), Manassas, Va.) suspended in phosphate buffered saline. Animals were then dosed with nothing (control group) or test compounds. […] Cisplatin was administered to mice as a comparative sample and its effectiveness was also examined. The doses of Pt-MMA (21 mg/kg) and cis-Platin (5 mg/kg) were calculated so that animals received equivalent amounts of Pt. Dosing began 39 days after tumor injection in cells when the tumors had reached a volume of 150 mm^3-200 mm^3 measured with a ruler.
Control or platinum compound treatment was administered on the 39th, 46th, 53th, 60th, and 66th day after initial tumor injections. The survival time of each group of mice was determined and the median survival time (days) was estimated on the basis of the observed survival time of each mouse. The therapeutic effectiveness of the Pt (II) complex is represented by the median survival significance compared to control (P-Value).

[3] = cisplatin 5 mg/kg, Pt-MMA 21 mg/kg

Molecule: CCCCCCCCCCCCCC(=O)[O][Pt]([NH2])([NH2])[Cl] [Cisplatin-mono myristate, cis-Diamine Pt (II) Chloride Monomyristic Acid]
Time nanoemulsion formulations were stable [1]: approximately 3 months

Time nanoemulsion formulations were stable [1]: approximately 3 months
Molecule: cis-Diamine Pt (II) Chloride Monostearic Acid [Cisplatin-mono stearate]

Time nanoemulsion formulations were stable [1]: approximately 3 months
Molecule: cis-Diamine Pt (II) Chloride Monopalmitic Acid [Cisplatin-mono palmitate]

Molecule: N.N.[Cl][Pt][Cl] [Cisplatin, Cis-dichlorodiammine Pt (II)]
median survival compared to control group (in words) [2]: not significantly improved | Average Tumor Size at 21 Days ([2]; 21 days, cisplatin 5 mg/kg, Pt-MMA 21 mg/kg): 640 ± 314 mm^3 | Average Tumor Starting Size ([2]; at start of dosing (day 39 after tumor injection)): 171 ± 43 mm^3 | Median Survival [2, 3]: 28 days | Time for First Tumor to Reach 1000 mm^3 [2, 3]: 17 days | Median Survival Significance Compared to Control (P-Value) ([2]; compared to control group): 0.0606
